Experimental findings from a compilation of properties of binary mixtures (doi:10.1021/je700428f) are described below.

The term speed of sound denotes how fast a sound wave travels through the sample.

Structures are written as SMILES.

This data set can be described thus: xn = mol fraction of the nth substance listed. The note with it: 100 kPa.

As to `CC[S+](CC)CC.O=S(=O)([N-]S(=O)(=O)C(F)(F)F)C(F)(F)F` + CCCO, the speed of sound by setting is: (293.15 K, x1 = 0.0493) 1205.5 m/s; (308.15 K, x1 = 0.0493) 1159.5 m/s; (323.15 K, x1 = 0.903) 1181.5 m/s.

On to `CCCO` + C=CC[n+]1ccn(C)c1.O=S(=O)([N-]S(=O)(=O)C(F)(F)F)C(F)(F)F, for which the speed of sound is given as 1206.5 m/s (298.15 K, x2 = 0); 1071.5 m/s (338.15 K, x2 = 0); 1054.5 m/s (343.15 K, x2 = 0).

`CCCO` + CC[S+](CC)CC.O=S(=O)([N-]S(=O)(=O)C(F)(F)F)C(F)(F)F: the speed of sound (338.15 K, x2 = 0) worked out at 1071.5 m/s and the speed of sound (343.15 K, x2 = 0) is listed as 1054.5 m/s.

Regarding `C=CC[n+]1ccn(C)c1.O=S(=O)([N-]S(=O)(=O)C(F)(F)F)C(F)(F)F` + CCCO, the speed of sound reads like this: (298.15 K, x1 = 0.2987) 1189.5 m/s; (308.15 K, x1 = 0.8024) 1207.5 m/s; (313.15 K, x1 = 0.5004) 1173.5 m/s; (323.15 K, x1 = 0.2987) 1127.5 m/s.
